PubChem BioAssay (NCI)
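Interpolation was linear, between the two tested concentrations surrounding the appropriate level; five concentrations were tested over 48 hours in 96-well plates. TGI: total growth inhibition.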

Assays:
Test in all cases: DTP human tumour cell line panel, 48 h
[1] = system: COLO 205 colon
[2] = system: M14 melanoma
[3] = system: K-562 leukemia
[4] = system: SW-620 colon
[5] = system: OVCAR-4 ovarian
[6] = system: MDA-N
[7] = system: OVCAR-8 ovarian
[8] = system: OVCAR-5 ovarian
[9] = system: SF-268 CNS
[10] = system: UACC-62 melanoma
[11] = system: CCRF-CEM leukemia
[12] = system: A498 renal
[13] = system: NCI-H23 lung
[14] = system: HCT-15 colon
[15] = system: MDA-MB-435
[16] = system: MALME-3M melanoma
[17] = system: TK-10 renal
[18] = system: SK-MEL-5 melanoma
[19] = system: MOLT-4 leukemia
[20] = system: HCT-116 colon
[21] = system: HT29 colon
[22] = system: IGROV1 ovarian
[23] = system: SNB-19 CNS
[24] = system: DU-145 prostate
[25] = system: UO-31 renal
[26] = system: SN12C renal
[27] = system: RPMI-8226 leukemia
[28] = system: RXF 393 renal
[29] = system: A549 NSCLC
[30] = system: 786-0 renal
[31] = system: ACHN renal
[32] = system: U251 CNS
[33] = system: NCI-H226 lung
[34] = system: EKVX NSCLC
[35] = system: HOP-92 NSCLC
[36] = system: KM12 colon
[37] = system: NCI/ADR-RES ovarian
[38] = system: SF-295 CNS
[39] = system: HS 578T breast
[40] = system: HOP-62 NSCLC
[41] = system: MDA-MB-231 breast
[42] = system: PC-3 prostate
[43] = system: LOX IMVI melanoma
[44] = system: BT-549 breast
[45] = system: SK-MEL-28 melanoma
[46] = system: OVCAR-3 ovarian
[47] = system: SK-OV-3 ovarian
[48] = system: SNB-75 CNS
[49] = system: CAKI-1 renal
[50] = system: UACC-257 melanoma
[51] = system: SK-MEL-2 melanoma
[52] = system: T-47D breast
[53] = system: NCI-H522 lung
[54] = system: HCC-2998 colon
[55] = system: SF-539 CNS
[56] = system: MCF7 breast
[57] = system: NCI-H460 lung
[58] = system: SR leukemia
[59] = system: HL-60(TB) leukemia

Measured: TGI

C[C@@H](CO)C1=C(O)c2ccc3c(c2C(=O)C1=O)CCCC3(C)C
34 µM: [11]
62.6 µM: [53]
43.2 µM: [31]
50 µM: [16]
68.9 µM: [23]
> 100 µM: [1] | [3] | [4] | [5] | [6] | [7] | [8] | [9] | [12] | [14] | [15] | [17] | [18] | [19] | [20] | [21] | [22] | [24] | [25] | [26] | [27] | [28] | [29] | [30] | [32] | [33] | [34] | [35] | [36] | [37] | [38] | [39] | [40] | [41] | [42] | [43] | [44] | [45] | [46] | [47] | [48] | [49] | [50] | [52]
84.7 µM: [51]
56.1 µM: [13]
77.4 µM: [10]
40.6 µM: [2]

COc1ccc(/C=C/c2cc(OC)c(OC)c(OC)c2)cc1O[Si](C)(C)C(C)(C)C
10.8 µM: [7]
6.25 µM: [6]
85.4 µM: [35]
32.7 µM: [1]
29.3 µM: [2]
4.44 µM: [18]
21.7 µM: [14]
25.6 µM: [56]
8.08 µM: [53]
5.86 µM: [15]
8.18 µM: [39]
> 100 µM: [5] | [8] | [9] | [13] | [17] | [21] | [22] | [23] | [24] | [25] | [54] | [29] | [34] | [40] | [41] | [42] | [45] | [47] | [48] | [49] | [51] | [52]
26.6 µM: [32]
34 µM: [31]
83.8 µM: [38]
47.7 µM: [33]
64 µM: [44]
94.1 µM: [12]
74.5 µM: [26]
37.3 µM: [50]
30.7 µM: [30]
5.71 µM: [55]
22.2 µM: [19]
17.3 µM: [4]
14.2 µM: [20]
13.4 µM: [57]
14.1 µM: [10]
9.02 µM: [28]
3.68 µM: [27]

COc1ccc(NC(=S)Nc2ccccc2)cc1
> 100 µM: [1] | [2] | [3] | [4] | [5] | [6] | [7] | [8] | [9] | [10] | [12] | [13] | [14] | [15] | [16] | [17] | [18] | [20] | [21] | [22] | [23] | [24] | [25] | [26] | [27] | [28] | [54] | [29] | [30] | [31] | [32] | [55] | [33] | [34] | [35] | [37] | [38] | [39] | [40] | [41] | [42] | [43] | [44] | [45] | [56] | [46] | [47] | [48] | [58] | [49] | [59] | [50] | [51] | [57] | [53]

C#CCCCCC#Cc1ccccc1C(=O)C=[N+]=[N-]
> 100 µM: [1] | [2] | [3] | [4] | [5] | [6] | [7] | [8] | [9] | [10] | [12] | [13] | [14] | [15] | [17] | [18] | [19] | [20] | [21] | [22] | [23] | [24] | [25] | [26] | [27] | [28] | [54] | [29] | [30] | [31] | [32] | [55] | [33] | [34] | [35] | [38] | [39] | [40] | [41] | [42] | [44] | [45] | [56] | [47] | [48] | [49] | [50] | [51] | [52] | [57] | [53]

O=C1CSC(c2ccc([N+](=O)[O-])cc2)N1c1nc(-c2ccc3c(c2)CCCC3)cs1 (configuration not stated)
81.8 µM: [55]
> 100 µM: [1] | [3] | [4] | [5] | [6] | [7] | [8] | [9] | [10] | [12] | [13] | [14] | [15] | [16] | [17] | [18] | [19] | [20] | [21] | [22] | [23] | [24] | [25] | [26] | [27] | [28] | [54] | [30] | [31] | [32] | [33] | [34] | [36] | [37] | [38] | [39] | [40] | [41] | [42] | [43] | [44] | [45] | [56] | [46] | [48] | [58] | [49] | [59] | [50] | [51] | [57] | [53]
